Experimental data published in PubChem BioAssay (NCI).
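Step 1: Grow cells in 96-well plates. Step 2: Expose to compound for 48 hours at 5 concentrations. Step 3: Interpolate endpoints linearly; if unreached, use highest concentration. TGI: concentration producing complete growth inhibition.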

Tests used:
Test in all cases: growth of human tumour cells (NCI), 48 h
SF-268 CNS = system: SF-268 CNS
HCT-15 colon = system: HCT-15 colon
SF-539 CNS = system: SF-539 CNS
A549 NSCLC = system: A549 NSCLC
HS 578T breast = system: HS 578T breast
IGROV1 ovarian = system: IGROV1 ovarian
HOP-92 NSCLC = system: HOP-92 NSCLC
MCF7 breast = system: MCF7 breast
MDA-MB-435 = system: MDA-MB-435
NCI-H23 lung = system: NCI-H23 lung
UACC-62 melanoma = system: UACC-62 melanoma
MALME-3M melanoma = system: MALME-3M melanoma
RXF 393 renal = system: RXF 393 renal
A498 renal = system: A498 renal
KM12 colon = system: KM12 colon
MOLT-4 leukemia = system: MOLT-4 leukemia

SMILES	TGI (SF-268 CNS)	TGI (HCT-15 colon)	TGI (SF-539 CNS)	TGI (A549 NSCLC)	TGI (HS 578T breast)	TGI (IGROV1 ovarian)	TGI (HOP-92 NSCLC)	TGI (MCF7 breast)	TGI (MDA-MB-435)	TGI (NCI-H23 lung)	TGI (UACC-62 melanoma)	TGI (MALME-3M melanoma)	TGI (RXF 393 renal)	TGI (A498 renal)	TGI (KM12 colon)	TGI (MOLT-4 leukemia)
C=C(COCO)C(C)=O	38 µM	39.6 µM	13.6 µM	> 64.7 µM	62.7 µM	35.9 µM	48.9 µM	34.5 µM	28.3 µM	35.4 µM	32.3 µM	23.5 µM	29.4 µM	49 µM	> 54.5 µM	6.08 µM
O=S1SC(=S)C2C=CC=NC21 (configuration not stated)	44.6 µM	49.2 µM	33.3 µM	60.5 µM	61.4 µM	49.6 µM	37.6 µM	38.4 µM	> 100 µM	43.1 µM	40.2 µM	36.3 µM	32.5 µM	66.1 µM	> 100 µM	64.9 µM
CC(=O)Nc1cc(Cl)cc(Cl)c1O	> 100 µM	> 100 µM	> 100 µM	> 100 µM	> 100 µM	> 100 µM	> 100 µM	> 100 µM	> 100 µM	> 100 µM	> 100 µM	> 100 µM	> 100 µM	> 100 µM	> 100 µM	> 100 µM
C=C1CC[C@@H]2C13[C@@H]1[C@H](CC(=O)[C@@]23C)C1(C)C (some centres not stated)	> 100 µM	> 100 µM	> 100 µM	> 100 µM	> 100 µM	> 100 µM	> 100 µM	> 100 µM	> 100 µM	> 100 µM	> 100 µM	> 100 µM	> 100 µM	> 100 µM	> 100 µM	> 100 µM
CCCC(=O)OCC1OC(n2cc(F)c(=O)[nH]c2=O)CC1O (configuration not stated)	> 10 µM	> 10 µM	0.247 µM	> 10 µM	> 10 µM	> 10 µM	> 10 µM	> 10 µM	> 10 µM	1.66 µM	> 10 µM	> 10 µM	> 10 µM	> 9.04 µM	> 10 µM	> 10 µM
O[C@@]1(C#Cc2ccc3c(c2)OCO3)CCC[C@H]1NCc1ccccc1	> 100 µM	47.3 µM	39.5 µM	> 100 µM	50.8 µM	46.9 µM	38 µM	55.3 µM	50.2 µM	> 100 µM	36.4 µM	29.6 µM	86.2 µM	92.5 µM	42.7 µM	45.1 µM
COc1ccc(N2C(=O)C(Cl)C2c2cc3cc(Br)ccc3nc2Cl)cc1 (configuration not stated)	19 µM	11 µM	10 µM	> 25 µM	> 25 µM	10.6 µM	18.3 µM	13.5 µM	10.7 µM	15.6 µM	8.86 µM	10.1 µM	9.38 µM	> 25 µM	> 25 µM	11.9 µM
